Consider five compounds from patent US6916471B2, “Red blood cells loaded with S-nitrosothiol and uses therefor” (Duke University, priority 1995, dated 2005).

One experiment deals with vascular ring. Put plainly: Vessel ring bioassay of SNO-Hb preparations, with or without glutathione. Particulars: for effect of added glutathione on the dose-response: glutathione 100 μM in bioassay chambers. From the text: Arterial red blood cells contain two physiologically important forms of hemoglobin: Hb(FeII)O2 and Hb(FeIII) (Antonini et al. (1971)). […] Such findings raise the possibility of functional consequences, perhaps influenced by the redox state of heme and its occupation by ligand.
Details of the vessel ring bioassay have been published (Stamler, J. S., et al., Proc. Natl. Acad. Sci. USA 89:444-448 (1992)). SNO-Hb(FeII)O2 preparations were synthesized with 10-fold excess S-nitrosocysteine (CYSNO) over Hb(FeII)O2 protein (2% borate, 0.5 mM EDTA, ˜15 min incubation), after which desalting was performed across Sephadex G-25 columns. CYSNO was synthesized in 0.5 N HCl, 0.5 mM EDTA and then neutralized (1:1) in 1 M phosphate buffer containing 0.5 mM EDTA. […] The latter was synthesized by treatment of Hb(FeII)O2 with excess ferricyanide, followed by desalting across G-25 columns. SNO-Hb concentrations were verified spectroscopically and the S-nitrosothiol content was determined by the method of Saville (Stamler, J. S., et al., Proc. Nat. Acad. Sci. USA 89:444-448 (1992)). The S-NO/tetramer stoichiometry for both SNO-Hb preparations was ˜2. Oxidation of the heme was undetectable by uv-spectrophotometric methods.

The subject of the next experiment is Sprague-Dawley rat. Put plainly: Mean arterial pressure after femoral vein bolus of cell-free Hb and SNO-Hbs. The format is in vivo. From the text: Systemic administration of cell-free Hb results in hypertensive responses which have been attributed to NO scavenging by the heme (Vogel, W. M., et al., Am. J. Physiol. 251:H413-H420 (1986); Olsen, S. B., et al., Circulation 93:329-332 (1996)). To determine if SNO-Hb is free of this adverse affect, and to explore if in vitro mechanisms of NO release extend to the in vivo circumstance, we compared responses to Hb and SNO-Hb infused as a bolus into the femoral vein of anesthetized rats. […] Thus, the profiles of these compounds in vivo closely resemble those seen in vitro (FIG. 4A). […] These changes in mean blood pressure of ˜10% are on the order of those that differentiate normotension from hypertension in man, and in the therapeutic range of some antihypertensive regimens. […] The bioactivity of SNO-Hb in blood, where S—NO/heme stoichiometries approach 1:50,000, is a dramatic illustration of the resistence of this NO-related activity to Hb(Fe) inactivation.
Administration of 2-200 nmol/kg Hb(FeII)O2 (as a bolus) into the femoral vein of a Sprague-Dawley rat is shown to increase mean arterial pressure in a dose-dependent manner. At 200 nmol/kg, mean arterial pressure increased by 25 mm Hg (20±3 mm Hg; n=4; P<0.05). Elevations in blood pressure reversed within 10-15 min. SNO-Hb(FeII)O2 infusions (over the same dose range) are shown to ameliorate Hb(FeII)O2-induced hypertension without causing overt changes in blood pressure. […] A fall in blood pressure was also seen with injection of erythrocytes containing SNO-Hb.
Rats were anesthetized by intraperitoneal injection of pentobarbital and the femoral arteries and veins accessed by local cut down. The artery was then cannulated and the blood pressure monitored continuously using a Viggo Spectramed pressure transducer attached to a Gould recorder. An IBM PC (DATA Q Codas) was used for data acquisition.

Experiment [1] is described as follows: SNO-Hb decomposition and transnitrosation with glutathione. The format is biochemical. How it is done:
The decomposition of SNO-Hb(FeII) is further accelerated by the presence of excess glutathione. Within the dead time of our measurements (˜15 sec) a major fraction of SNO-Hb(FeII) was converted to GSNO.
Hbs in PBS (0.5 mM EDTA, pH 7.4) were incubated in air (oxy) or in a tonometer previously evacuated of O2 (deoxy). SNO-Hb(FeII)O2 decomposition was determined by the method of Saville (Saville, B., Analyst, 83:670-672 (1958)). Spontaneous decomposition of SNO-Hb(FeII) was followed spectrophotometrically by formation of Hb(FeII)NO. […] Rates of NO group transfer were too rapid to measure accurately by the standard methods used in this study.
Data are presented as the amount of GSNO formed relative to the starting SNO-Hb concentration.
Thiol/SNO-Hb exchange, forming GSNO, was verified chemically (Stamler, J. S., et al., Proc. Natl Acad. Sci. USA 89:444-448 (1992)) following trichloroacetic acid precipitation (n=5).

For experiment [2], the system named is rabbit thoracic aorta rings. Nature of the experiment: Oxygen-dependent rabbit aortic ring bioassay of Hb, SNO-Hb, GSNO and SNO-RBCs.
Another experiment relates to Rats. Nature of the experiment: Hemodynamics (blood pressure) at different O2 concentrations. The format is in vivo, rat. Particulars: 1 μmol/kg infused over 1 minute; 10 min. post-infusion. How it is done: Rats were anesthetized by intraperitoneal injection of pentobarbital, and the femoral arteries and veins accessed by local cutdown. The artery was then cannulated and the blood pressure monitored continuously using a P23 XL pressure transducer (Viggo Spectramed, Oxnard, Calif.) attached to a Gould recorder. The femoral vein was used for infusion of drugs and red blood cells containing SNO-Hb (1 ml over 1 min.) and an IBM PC (WINDAQ 200, Dataq Instruments, Inc.; Akron, Ohio) was used for data acquisition.
Drugs were infused through the femoral vein at 1 μmol/kg infused over 1 minute after blood pressure had stabilized (approximately 30 min). Measurements shown (FIG. 11A) were taken at 10 min. post-infusion of drug. […] P<0.05 vs. SNO-Hb; *P<0.05, **P<0.01) vs. baseline blood pressure. n=5-6 for each drug.
The hypotensive effects of SNO-RBCs were potentiated by pre-administration of the NO synthase inhibitor N^G-monomethyl-L-arginine (L-NMMA; 50 mg/kg). n=8 for each data point. Curves different by ANOVA (P<0.01), *P<0.05 vs. L-NMMA. The amount of hemolysis in these experiments was trivial. Infusion of the hemolysate had no effect on blood pressure.

For a further experiment, the system named is rat red blood cells. Nature of the experiment: S-nitrosylation of intraerythrocytic Hb (loading of red blood cells). It counts as cell-based. Particulars: oxygenated rat red blood cells. The method, then:
Given that Hb is largely contained within red blood cells, potential mechanisms by which S-nitrosylation of intracellular protein might occur were explored. […] Rapid oxidation of Hb was not observed under these conditions. […] Thus, erythrocyte access of RSNOs is thiol group specific.
Incubation of rat erythrocytes with S-nitrosocysteine (equimolar to heme (5 mM); phosphate buffer pH 7.4, 25° C.) leads to rapid formation of intracellular SNO-Hb(FeII)O2. […] By 60 min, 3 of the 4 available SH groups of Hb are S-nitrosylated (note that rat Hb contains 4 reactive SH groups). […] Spectrum A is that of SNO-Hb isolated from erythrocytes following G-25 chromatography. Treatment of A with dithionite results in reduction of the S—NO moiety, liberating free NO which is autocaptured by deoxy Hb, forming Hb(FeII)NO (note that dithionite simultaneously deoxygenates Hb) (spectrum C). […] The spectrum of Hb(FeII)NO containing 4 NO's per tetramer is shown for comparison (inset, spectrum B).
At shown intervals, red blood cells were pelleted rapidly by centrifugation, washed three times, lysed in deionized water at 4° C., and the cytosolic fraction subjected to rapid desalting across G-25 columns. Intracellular SNO-Hb was measured by the method of Saville (Gaston, B., et al., (1992); Stamler, J. S., et al., Proc. Natl. Acad. Sci. USA, 89:444-448 (1992)), and confirmed spectroscopically (inset of FIG. 3A) as described above.

The subject of the next experiment is Sprague-Dawley rats. Nature of the experiment: Local cerebral blood flow by H2-sensitive microelectrodes. It counts as in vivo, rat. Particulars: for local cerebral blood flow: 1 μmol/kg infused over 3 minutes. The method, then: Adult male Sprague-Dawley rats (290-350 g) were anesthetized with sodium pentobarbital (50 mg/kg IP), intubated and ventilated with a small animal respirator (Edco Scientific Inc., Chapel Hill, N.C.) at a rate and tidal volume to maintain normal values of PaCO2 (35-45 mm Hg; PaCO2=systemic arterial blood carbon dioxide tension). The femoral vein and artery were cannulated for infusion of drugs and for continuous monitoring of systemic blood pressure, respectively. Aliquots of arterial blood (200 μl) were drawn periodically to measure blood gas tensions and pH (Instrumentation Laboratory Co., model 1304 blood gas/pH analyzer). The blood was replaced intravenously with three volumes of normal saline. The inspired O2 concentration was varied using premixed gases balanced with nitrogen. The tissue PO2 was measured continuously with polarographic platinum microelectrodes (50 μm O.D. coated with hydrophobic gas permeable Nafion) implanted stereotaxically in both the right and left hippocampus (AP−3.4 mm, ML+2.2 mm), caudate putamen nucleus and substantia nigra (see coordinates below) (Young, W., Stroke, 11:552-564 (1980); Heiss, W. D. and Traupett, H., Stroke, 12:161-167 (1981); Dewhirst, M. W. et al., Cancer Res., 54:3333-3336 (1994); Kerger, H. et al., Am. J. Physiol., 268:H802-H810 (1995)). The PO2 electrodes were polarized to −0.65V against a distant Ag/AgCl reference located on the tail and the current flow was measured using a low-impedance nA-meter. Regional arterial PO2 was adjusted by changing the inspired O2 concentration and atmospheric pressure.
Polarographic hydrogen (H2)-sensitive microelectrodes were implanted stereotaxically in the substantia nigra (AP −5.3 mm, ML −2.4 mm to the bregma, depth 3.2 mm), caudate putamen nucleus (CPN) (AP +0.8 mm, ML −2.5 mm, depth 5.2 mm) and parietal cortex, for measurement of regional blood flow (Young, W., Stroke, 11:552-564 (1980); Heiss, W. D. and Traupett, H., Stroke, 12:161-167 (1981)). The microelectrodes were made from platinum wire and insulated with epoxy, with the exception of the tip (1 mm) which was coated with Nafion. For placement, the electrodes were mounted on a micromanipulator and the rat's head was immobilized in a Kopf stereotaxic frame. H2-sensitive electrodes were polarized to +400 mV against a distant reference electrode on the tail, and the polarographic current was measured using a low-impedance nA meter during and after the inhalation of hydrogen gas (2.5%) for 1 min. Both the hydrogen clearance curves and voltage for oxygen measurements were made using PC WINDAQ (software, DI-200 AC, Dataq Instruments, Inc., Akron, Ohio). Cerebral blood flow was calculated using the initial slope method (Young, W., Stroke, 11:552-564 (1980); Heiss, W. D. and Traupett, H., Stroke, 12:161-167 (1981)). Regional blood flow responses were monitored for 30 min. prior to and 30 min. following drug administration; hemoglobins were given at time 0.
The cerebrovascular effects of SNO-Hb were measured in adult male Sprague-Dawley rats using O2 and H2 (blood flow)-sensitive microelectrodes that were placed stereotaxically in several regions of the brain as for Example 11.
Comparative effects of SNO-Hb (●) and Hb (▪) (1 μmol/kg infused over 3 minutes) on local blood flow in substantia nigra (SN), caudate putamen nucleus, and parietal cortex are shown for three different conditions. […] Baseline blood flow was decreased by ˜10% under 100% O2+3 ATA as compared to 100% O2. n=7 for all data points. Values of tissue/microvascular PO2 ranged from 19-37 mm Hg in 21% O2; from 68-138 mm Hg in 100% O2; and from 365-538 mm Hg in 100%+3 ATA (Duke University Medical Center Hyperbaric Chambers).

Where “and” joins values, the source holds several entries; their conditions need not be identical. Equal entries are not always repeated.

As to “Hb(FeII)O2: oxyhemoglobin, cell-free [reference compound]”, the “effect of added glutathione on the dose-response” value in the experiment with vascular ring is reported as “did not significantly influence the response”. Further, in the experiment with Sprague-Dawley rat (200 nmol/kg bolus, femoral vein, anesthetized rat), the “increase in mean arterial pressure” value was 20±3 mm Hg and 25 mm Hg. The “time for elevations in blood pressure to reverse” value with Sprague-Dawley rat (2-200 nmol/kg bolus) lay within 10 to 15 min.

For the compound “SNO-Hb(FeIII): S-nitrosohemoglobin with heme oxidized to FeIII”, the “effect of added glutathione on the dose-response” value in the experiment on vascular ring is on record as “potentiates the dose-response”. Moreover, the “activity in vascular ring bioassay” value in the experiment on vascular ring (no glutathione) is reported as “vasodilator”. Moreover, the “rate of NO group transfer to glutathione” value in experiment [1] (SNO-Hb 100 μM, glutathione 10 mM, versus SNO-Hb(FeII)O2) is recorded as “more rapid”. Further, the “mean arterial pressure, post” value in the experiment on Sprague-Dawley rat (after 200 nmol/kg (highest dose)) came out at 74±6 mm Hg. Also, in the experiment with Sprague-Dawley rat (after hypotensive response), the “time for blood pressure to normalize” value came out at 10 min. For the same compound, the “mean arterial pressure, pre” value with Sprague-Dawley rat (before 200 nmol/kg) is 108±4 mm Hg. In the experiment with Sprague-Dawley rat (bolus, femoral vein, anesthetized rat), the blood pressure response entry is “elicited hypotensive responses”.

With “SNO-Hb(FeII): S-nitrosohemoglobin in the deoxy state”, the “rate of RSNO decomposition (and transfer)” value in experiment [1] (deoxy versus oxy state, PBS pH 7.4) is reported as “much faster in the deoxy conformation”. Further, the “effect on vessel tone in T-structure” value in experiment [2] (<1% O2 (˜6 torr)) is recorded as “modest effect on baseline tone”.

On to `N[C@@H](CCC(=O)N[C@@H](CSN=O)C(=O)NCC(=O)O)C(=O)O` [S-nitrosoglutathione], for which the “change in blood pressure” value in the experiment with Rats is “decreased blood pressure”. For the same compound, the “formation of intraerythrocytic SNO-Hb” value with rat red blood cells was “not”. Also, the brain perfusion entry with Sprague-Dawley rats (100% O2 and 100% O2+3 ATA) is reported as “increased brain perfusion”. For the same compound, in experiment [2] (95%, 21%, <1% O2), the “O2 dependence of vasorelaxant effects” value is given as “largely independent of PO2”.

Consider S-nitrosohemoglobin [SNO-Hb], for which the “change in blood pressure” value in the experiment with Rats was “significantly less of an increase in blood pressure than Hb”. The results for the “local cerebral blood flow” value in the experiment on Sprague-Dawley rats (21% O2), in the experiment with Sprague-Dawley rats (100% O2) and in the experiment on Sprague-Dawley rats (100% O2+3 ATA) were “improved blood flow in all three regions of the brain tested”, “significantly attenuated” and “tended to decrease cerebral flow to similar extents”, respectively. The “effect on tone of rings contracted with phenylephrine under hypoxia” value in experiment [2] (1 μM, 6-7 torr) is “caused relaxations”. The “effect of glutathione on vasorelaxant response” value in experiment [2] (10 μM glutathione, greatest at <1% O2) is on record as “potentiates the vasorelaxant response”. Moreover, in experiment [2] (95% O2), the “concentration-effect responses in R-structure” value is “virtually identical to those of native Hb”.
